According to publication PMC12682947, “Identification of New KCNT1‐Epilepsy Drugs by In Silico, Cell, and Drosophila Modeling” (Annals of Neurology, 2025):

Tests used:
[1] = test system: Drosophila epilepsy model; set-up: method as in PMID 39720593; details: cited from earlier work
[2] = test system: Drosophila mutant KCNT1 lines (G288S, R398Q, R928C); test: Bang-sensitive behavioral seizure assay, statements for all three Drosophila mutant KCNT1 lines; assay type: in vivo, Drosophila melanogaster; details: drug in food, 1 nM to 1 μM, each of the three mutant lines
Source text: The Drosophila melanogaster lines carrying the WT human KCNT1 transgene (NM_020822_3) or KCNT1 mutant G288S, R398Q or R928C transgene placed downstream of the yeast UAS promoter, have been described previously.[11] WT or mutant human UAS‐KCNT1 flies were crossed to flies expressing the GAL4 transcriptional activator under the control of the GAD1 promoter (GABAergic driver, Bloomington stock number 51630 P2) to drive expression of KCNT1 in GABAergic neurons, involved in neuronal inhibition.[11]
The bang‐sensitive behavioral assay (also known as the banging assay) was used to test for the presence of a seizure phenotype in Drosophila.[11], [30] Experiments were performed and scored, as previously described,[11] with a minimum of 50 Drosophila tested for each genotype and drug concentration.
Four drugs were selected for in vivo analysis to determine their effects on the seizure phenotypes in transgenic Drosophila lines with human mutant KCNT1 channels. Bepridil, a nonselective KCNT1 inhibitor was included for comparison. Drosophila food with and without drugs was prepared as previously described.[11] All chemicals were obtained from Sigma‐Aldrich (Gillingham, UK) apart from antrafenine hydrochloride (Toronto Research Chemicals, Canada) and regorafenib (USP, Germany).
Drosophila crosses were set up, and the resulting embryos were collected, as previously described.[11] A range of concentrations of each drug dissolved in Drosophila food, between 0.001 μM and 1 μM, were used in the experiments. Multiple replicates were performed for each dosage of the drugs and controls. Controls were vehicle controlled (VC), which was the normal food with just the solvent ethanol present (1 μl/1 ml) in the Drosophila food, and normal food (NF) control where no drug or solvent (ethanol) was added in the Drosophila food.
In all experiments, experimenters were not blinded to variants or treatments, nor were samples randomly assigned to groups. Sample sizes were not calculated in advance and no data were excluded from the analysis. Data were analyzed using GraphPad Prism 9 software (San Diego, CA, USA). All values are reported as mean ± standard error of the mean (SEM). All data passed normality and lognormality Shapiro–Wilk tests, determined by GraphPad Prism 9. In the experiments analyzing the effects of drugs in Drosophila, statistical significance of differences between groups was determined using Brown‐Forsythe and Welch's analysis of variance (ANOVA) tests (Supplementary Table S3), assuming non‐equal SDs, followed by Dunnett's multiple comparisons tests (GraphPad Prism 9). The results of the Dunnett's multiple comparisons tests are shown in Supplementary Table S4, where “N” represents independent trials using independent fly crosses, with the total number of flies for each condition shown in brackets.

[3] = test system: Drosophila mutant KCNT1 lines (G288S, R398Q, R928C); set-up: method as in PMID 38336906; details: Drosophila models of KCNT1 epilepsy; cited from earlier work

Row | Compound | reduction of seizures [1] | also measured
1 | O=C1NC(=O)C(c2ccccc2)(c2ccccc2)N1 [Phenytoin] | approximately 30% | –
2 | CC(C)COCC(CN(Cc1ccccc1)c1ccccc1)N1CCCC1 (centres unmarked) [bepridil] | – | effect on seizure activity (in words) [2]: exacerbate the seizure phenotype
3 | CCCC(CCC)C(=O)O [valproate] | approximately 30% | –
4 | Nc1nnc(-c2cccc(Cl)c2Cl)c(N)n1 [lamotrigine] | approximately 30% | –
5 | C=C[C@H]1C[N@@]2CC[C@H]1C[C@@H]2[C@@H](O)c1ccnc2ccc(OC)cc12 [quinidine] | – | effect on seizure phenotype (in words) [3]: exacerbate the seizure phenotype
